{"source": "paper PMC5686395", "about": "“Eukaryotic-type serine/threonine kinase mediated phosphorylation at Thr^169 perturbs mycobacterial guanylate kinase activity” (Bioscience Reports, 2017)", "key": {"[1]": {"molecular_target": "PknB (Mycobacterium tuberculosis, UniProt P9WI81)", "sequence (P9WI81 2-626)": "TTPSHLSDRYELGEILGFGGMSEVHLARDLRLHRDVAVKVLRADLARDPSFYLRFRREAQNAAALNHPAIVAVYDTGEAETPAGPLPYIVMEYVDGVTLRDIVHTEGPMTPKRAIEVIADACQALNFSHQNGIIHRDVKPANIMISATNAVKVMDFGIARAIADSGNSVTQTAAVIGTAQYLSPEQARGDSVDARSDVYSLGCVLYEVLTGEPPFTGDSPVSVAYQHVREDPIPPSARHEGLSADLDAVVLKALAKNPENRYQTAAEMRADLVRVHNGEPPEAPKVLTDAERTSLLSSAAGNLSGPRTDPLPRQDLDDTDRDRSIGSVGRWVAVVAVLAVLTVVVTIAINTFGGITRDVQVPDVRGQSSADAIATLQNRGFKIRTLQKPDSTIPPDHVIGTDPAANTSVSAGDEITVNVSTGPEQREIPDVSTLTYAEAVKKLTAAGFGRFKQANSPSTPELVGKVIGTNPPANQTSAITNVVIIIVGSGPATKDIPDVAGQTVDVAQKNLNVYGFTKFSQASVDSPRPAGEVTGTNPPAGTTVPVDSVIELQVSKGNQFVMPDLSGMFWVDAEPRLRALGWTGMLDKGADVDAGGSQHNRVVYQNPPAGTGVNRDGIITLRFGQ"}, "[2]": {"molecular_target": "PknA-core (PknA-338) (Mycobacterium tuberculosis, UniProt P9WI83)", "sequence (P9WI83 1-338)": "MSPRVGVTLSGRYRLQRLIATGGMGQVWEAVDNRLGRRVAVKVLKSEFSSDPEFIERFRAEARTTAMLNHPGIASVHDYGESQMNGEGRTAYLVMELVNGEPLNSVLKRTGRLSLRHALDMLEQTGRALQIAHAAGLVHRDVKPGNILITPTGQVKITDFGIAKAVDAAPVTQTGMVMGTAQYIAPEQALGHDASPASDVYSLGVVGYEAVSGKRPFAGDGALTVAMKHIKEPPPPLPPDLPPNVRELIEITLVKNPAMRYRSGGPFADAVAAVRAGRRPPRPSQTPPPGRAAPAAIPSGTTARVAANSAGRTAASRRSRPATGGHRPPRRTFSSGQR"}}}
{"smiles": "Nc1ncnc2c1ncn2[C@@H]1O[C@H](COP(=O)(O)OP(=O)(O)OP(=O)(O)O)[C@@H](O)[C@H]1O", "note": "[[γ-32P] ATP]", "values": [{"measurement": "in vitro kinase assay, SDS/PAGE and autoradiography", "setting": "[1]", "value": "PknB, another essential mycobacterial kinase, instead of PknA in the assay yielded weak p-mGmk"}, {"measurement": "in vitro kinase assay, SDS/PAGE and autoradiography", "setting": "[2]", "value": "its incubation with PknA exhibited phosphorylation"}]}
